Assay results as given in the NIST ThermoML archive (doi:10.1021/acs.jced.6b00673).
Several values for one entry are separate records, joined by “and”; a condition that tells them apart may be missing. Identical values can stand only once.

Settings: Liquid, Closed cell (Static) method

F/C=C/C(F)(F)F [trans-1,3,3,3-tetrafluoropropene]
Settings	vapor or sublimation pressure
235.01 K	40.19 kPa
235.17 K	40.58 kPa
239.05 K	49.6 kPa
239.07 K	49.6 kPa and 49.61 kPa
242.03 K	57.54 kPa
242.04 K	57.54 kPa
245.15 K	66.85 kPa
245.16 K	66.94 kPa and 66.9 kPa
247.99 K	76.45 kPa
248.02 K	76.52 kPa
249.38 K	81.49 kPa
250.68 K	86.48 kPa
250.72 K	86.57 kPa
252.24 K	92.69 kPa and 92.75 kPa
252.58 K	94.2 kPa
256.25 K	110.47 kPa
258.72 K	122.66 kPa
258.74 K	122.75 kPa
262.01 K	140.52 kPa
264.78 K	157.04 kPa
268.27 K	179.98 kPa
271.72 K	205.14 kPa
274.51 K	227.45 kPa
277.43 K	252.66 kPa
280.73 K	283.77 kPa
284.07 K	318.06 kPa
287.25 K	353.65 kPa
290.51 K	393.03 kPa
293.33 K	429.86 kPa
296.67 K	476.7 kPa
299.73 K	523.05 kPa
302.71 K	571.25 kPa
303.98 K	592.72 kPa
306.42 K	635.82 kPa and 635.84 kPa
308.5 K	674.57 kPa
311.91 K	741.32 kPa and 741.51 kPa
314.3 K	791.29 kPa
314.31 K	791.42 kPa
316.04 K	829.03 kPa and 829.14 kPa
318.53 K	885.61 kPa
319.38 K	905.41 kPa and 905.49 kPa
320.96 K	943.34 kPa
323.48 K	1006.1 kPa
325.23 K	1051.7 kPa
327.75 K	1119.9 kPa
329.78 K	1177.5 kPa
332.09 K	1245.2 kPa
334.3 K	1312.8 kPa
336.51 K	1383.2 kPa
338.43 K	1446.6 kPa
340.44 K	1515 kPa
342.65 K	1593.5 kPa
344.94 K	1678 kPa
347.25 K	1766.4 kPa
349.48 K	1855 kPa
351.21 K	1926.4 kPa
353.31 K	2015.3 kPa
355.52 K	2112.5 kPa
358.52 K	2250 kPa
360.61 K	2349.9 kPa
362.53 K	2444.8 kPa
364.71 K	2556.2 kPa
366.86 K	2669.6 kPa
367.85 K	2724.3 kPa
368.95 K	2784.2 kPa
369.85 K	2835.5 kPa
371.01 K	2900.6 kPa
371.91 K	2953.8 kPa
372.81 K	3005.5 kPa
374.07 K	3082.4 kPa
374.9 K	3131.7 kPa
376.04 K	3203.1 kPa
377.04 K	3265.4 kPa
377.94 K	3323.5 kPa
378.57 K	3364.9 kPa
379.16 K	3402.3 kPa
379.51 K	3425.9 kPa
379.87 K	3450.3 kPa
380.02 K	3459.7 kPa
380.51 K	3493.5 kPa
